The numbers were not newly measured in US12440482B2, “1,4-dihydropyridine compositions, methods of making and use” (American Regent, Inc., priority 2019, dated 2025), which cites them from elsewhere.

In the case of `COC(=O)C1=C(C)NC(C)=C(C(=O)OCCN(C)Cc2ccccc2)C1c1cccc([N+](=O)[O-])c1` (stereo not shown) [nicardipine], the solubility in water result is on record as “only slightly soluble”.
